≈ marks a conversion by molar mass, not a printed value. Where a SMILES comes first, the peptide text is derived from it. Bridges are numbered along the chain shown (N, C = ends). Roman numbers before positions name the chains, in order. [ ]: non-standard residue; d: D form. Tle = CC(C)(C)[C@H](N)C(=O)O; dDab = NCC[C@@H](N)C(=O)O; hSer = N[C@@H](CCO)C(=O)O; Orn = NCCC[C@H](N)C(=O)O; Dab = NCC[C@H](N)C(=O)O; Dap = NC[C@H](N)C(=O)O
Assays:
Type in all cases: cell-based
Escherichia coli 926415 = settings: 926415
In short: (§1)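 Standard CLSI microdilution testing: bacterial suspensions standardized against 0.5 McFarland to about 10^6 CFU/mL in MH-II broth meet serially halved peptide concentrations in broth containing 0.002% polysorbate 80; incubation lasts 18-20 h at 35° C before the MIC is scored.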

[1] = system: Enterobacter cloacae 848840; settings: 848840
In short: as §1

[2] = system: Klebsiella pneumoniae 968733; settings: 968733
In short: as §1

[3] = system: Pseudomonas aeruginosa ATCC 27853; settings: ATCC 27853
In short: as §1

[4] = system: Acinetobacter baumannii 872842; settings: 872842
In short: as §1

[5] = system: Escherichia coli ATCC 25922; settings: ATCC 25922
In short: as §1

[6] = system: Klebsiella pneumoniae SSI #3010; settings: SSI #3010
In short: as §1

[7] = system: Acinetobacter baumannii DSM 30008; settings: DSM 30008
In short: as §1

[8] = system: human red blood cells (hRBC); assay: Hemolysis; settings: red cells of human, 1 h, 200
In short: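 Read-out is supernatant absorbance at 540 nm, normalised to full lysis by 2% Triton X-100 and zero lysis by PBS with 10% water. Peptides (200 μg/mL) were exposed to 20% v/v washed human erythrocytes at 37° C for 1 h under shaking.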

Row | MIC (Escherichia coli 926415) | MIC [1] | MIC [2] | MIC [3] | MIC [4] | MIC [5] | MIC [6] | MIC [7] | SMILES | Hemolysis at 200 μg/mL [8]
1 | 0.25 µg/mL (≈ 0.1 µM) | 0.125 µg/mL (≈ 0.0501 µM) | 0.5 µg/mL (≈ 0.2 µM) | 0.125 µg/mL (≈ 0.0501 µM) | 0.25 µg/mL (≈ 0.1 µM) | 0.0625 µg/mL (≈ 0.025 µM) | 0.125 µg/mL (≈ 0.0501 µM) | 0.0625 µg/mL (≈ 0.025 µM) | CC(=O)N[C@H](C(=O)N[C@H]1CSSC[C@@H](C(=O)N[C@@H](CO)C(N)=O)NC(=O)[C@H](C(C)(C)C)NC(=O)[C@H](CCC(=O)O)NC(=O)[C@H](Cc2c[nH]c3ccccc23)NC(=O)[C@H](CCO)NC(=O)[C@@H](CCN)NC(=O)[C@H](CCC(=O)N[C@@H](CCN)C(=O)N[C@H](C(=O)N[C@@H](CN)C(=O)N[C@H]2CCNC(=O)[C@H]([C@@H](C)O)NC(=O)[C@H](CCN)NC(=O)[C@H](CCN)NC(=O)[C@H](CC(C)C)NC(=O)[C@@H](CC(C)C)NC(=O)[C@H](CCN)NC2=O)[C@@H](C)O)NC(=O)[C@H](CCCCN)NC(=O)[C@H](Cc2ccc(O)cc2)NC1=O)C(C)C [Ex. 159] (I: Ac-VCYKE[dDab][hSer]WE[Tle]CS-NH2 / II: [Dab]T[Dap][Dab][Dab][dL]L[Dab][Dab]T; disulfide I:2-I:11; amide I:5-II:N; lactam II:4-II:C) | <1%
2 | 8 µg/mL (≈ 3.41 µM) | 0.5 µg/mL (≈ 0.213 µM) | 8 µg/mL (≈ 3.41 µM) | 0.5 µg/mL (≈ 0.213 µM) | 2 µg/mL (≈ 0.852 µM) | 0.25 µg/mL (≈ 0.106 µM) | 0.5 µg/mL (≈ 0.213 µM) | 0.5 µg/mL (≈ 0.213 µM) | CC(=O)N[C@H](C(=O)N[C@H]1CCCNC(=O)[C@@H](CCC(=O)O)NC(=O)[C@H](C(C)(C)C)NC(=O)[C@H](CO)NC(=O)[C@H](Cc2c[nH]c3ccccc23)NC(=O)[C@H](CCO)NC(=O)[C@@H](CCN)NC(=O)[C@H](CCC(=O)N[C@@H](CCN)C(=O)N[C@H](C(=O)N[C@@H](CN)C(=O)N[C@H]2CCNC(=O)[C@H]([C@@H](C)O)NC(=O)[C@H](CCN)NC(=O)[C@H](CCN)NC(=O)[C@H](CC(C)C)NC(=O)[C@@H](CC(C)C)NC(=O)[C@H](CCN)NC2=O)[C@@H](C)O)NC(=O)[C@H](CO)NC(=O)[C@H](Cc2ccc(O)cc2)NC1=O)C(C)C [Ex. 21] (I: Ac-V[Orn]YSE[dDab][hSer]WS[Tle][dE] / II: [Dab]T[Dap][Dab][Dab][dL]L[Dab][Dab]T; lactam I:2-I:C, II:4-II:C; amide I:5-II:N) | <1%
3 | 8 µg/mL (≈ 3.44 µM) | 0.25 µg/mL (≈ 0.108 µM) | 0.5 µg/mL (≈ 0.215 µM) | 0.125 µg/mL (≈ 0.0538 µM) | 0.125 µg/mL (≈ 0.0538 µM) | 0.25 µg/mL (≈ 0.108 µM) | 0.25 µg/mL (≈ 0.108 µM) | 0.125 µg/mL (≈ 0.0538 µM) | CC(=O)N[C@H](C(=O)N[C@H]1CSSC[C@@H](C(N)=O)NC(=O)[C@H](C(C)(C)C)NC(=O)[C@H](CO)NC(=O)[C@H](Cc2c[nH]c3ccccc23)NC(=O)[C@H](CCN)NC(=O)[C@@H](CCN)NC(=O)[C@H](CCC(=O)N[C@@H](CCN)C(=O)N[C@H](C(=O)N[C@@H](CN)C(=O)N[C@H]2CCNC(=O)[C@H]([C@@H](C)O)NC(=O)[C@H](CCN)NC(=O)[C@H](CCN)NC(=O)[C@H](CC(C)C)NC(=O)[C@@H](CC(C)C)NC(=O)[C@H](CCN)NC2=O)[C@@H](C)O)NC(=O)[C@H](CN)NC(=O)[C@H](Cc2ccc(O)cc2)NC1=O)C(C)C [Example 10] (I: Ac-VCY[Dap]E[dDab][Dab]WS[Tle]C-NH2 / II: [Dab]T[Dap][Dab][Dab][dL]L[Dab][Dab]T; disulfide I:2-I:11; amide I:5-II:N; lactam II:4-II:C) | <1%
4 | 0.25 µg/mL (≈ 0.108 µM) | 0.125 µg/mL (≈ 0.0539 µM) | 0.5 µg/mL (≈ 0.215 µM) | 0.25 µg/mL (≈ 0.108 µM) | 0.25 µg/mL (≈ 0.108 µM) | 0.0625 µg/mL (≈ 0.0269 µM) | 0.125 µg/mL (≈ 0.0539 µM) | 0.0625 µg/mL (≈ 0.0269 µM) | CC(=O)N[C@H](C(=O)N[C@H]1CCCNC(=O)[C@@H]([C@H](C)O)NC(=O)[C@H](C(C)(C)C)NC(=O)[C@H](CO)NC(=O)[C@H](Cc2c[nH]c3ccccc23)NC(=O)[C@H](CCO)NC(=O)[C@@H](CCN)NC(=O)[C@H](CCC(=O)N[C@@H](CCN)C(=O)N[C@H](C(=O)N[C@@H](CN)C(=O)N[C@H]2CCNC(=O)[C@H]([C@@H](C)O)NC(=O)[C@H](CCN)NC(=O)[C@H](CCN)NC(=O)[C@H](CC(C)C)NC(=O)[C@@H](CC(C)C)NC(=O)[C@H](CCN)NC2=O)[C@@H](C)O)NC(=O)[C@H](CO)NC(=O)[C@H](Cc2ccc(O)cc2)NC1=O)C(C)C [Ex. 18] (I: Ac-V[Orn]YSE[dDab][hSer]WS[Tle][dT] / II: [Dab]T[Dap][Dab][Dab][dL]L[Dab][Dab]T; lactam I:2-I:C, II:4-II:C; amide I:5-II:N) | 1%
